Measured values taken from PubChem BioAssay AID2060513 (Molecular Pharmacology Branch, DTP, NCI, 2025).

Tested on: 299254-011-R-J1-PDC complex spheroids viability
Test: Anticancer human tumor 299254-011-R-J1-PDC patient-derived melanoma cell line growth inhibition [GQUAD]
Conditions: for IC50: curve of first compound; for viability, T/C: stronger effect = lower value
Description: DNA G-quadruplex Stabilizer Agents in Combinations in Complex Spheroids
A high-throughput screen of multi-cell type tumor spheroids was designed to identify active combinations of DNA G-quadruplex stabilizer agents and targeted small molecules. Complex spheroids include a stromal component modeled by human endothelial cells (HUVEC) and fibroblasts modeled by human mesenchymal stem cells (MSCs). The concentration ranges selected for each drug and investigational agent were based upon clinically achievable concentrations if the clinical Cmax of the agent was known.
Compounds. The drugs and investigational agents: pidnarulex (CX-5461; NSC782164), APTO-253 (NSC789042), BRACO-19 (NSC847499), peposertib (NSC802822), ceralasertib (NSC780249), elimusertib (NSC800525), camonsertib (NSC841442), AZD-1390 (NSC803789), olaparib (NSC753686), talazoparib (NSC767125), ART-558 (NSC835418), sotorasib (NSC818433), MRTX-1133 (NSC836407), SN-38 (NSC673596), topotecan (NSC609699), etoposide (NSC141540), doxorubicin (NSC123127), gemcitabine (NSC613327), 5-fluorouracil (NSC19893), paclitaxel (NSC125973), vemurafenib (NSC761431), panobinostat (NSC761190), R-306465 (JNJ-16241199; NSC773264), adavosertib (NSC754352), TP-3654 (NSC805149), carboplatin (NSC241240), KSQ-4279 (NSC840948), and staurosporine (NSC755774) were obtained from the National Cancer Institute (NCI) Developmental Therapeutics Program Chemical Repository (34). The FDA-approved anticancer drug set is available from the NCI Developmental Therapeutics Program. […] The stock solutions were prepared in dimethyl sulfoxide (DMSO, Sigma-Aldrich, St. Louis, MO, cat. D2650) at 800-fold the tested concentration and stored at -70 degrees C prior to their use. All drugs and investigational agents were tested over a range starting from a high concentration at or near the clinical Cmax and decreasing in half-log increments. If the clinical Cmax for an agent had not been determined, the highest concentration tested was 10 microM.
2.3 Cell Culture. All cells were maintained in an incubator at 37 degrees C and 5% CO2 with 95% humidity. The PDC lines were cultured according to standard operating procedures established by the NCI PDMR. All PDCs were thawed and cultured in Matrigel-coated flasks prepared with a working solution of 1X Ham's F-12 nutrient mix, without supplementation (Invitrogen, cat. 11765054), 100 U/mL penicillin-streptomycin (Invitrogen, cat. 15140122), and 2.5% Matrigel (Corning Inc., cat. 354248) for the first three passages. The 857933-349-R-J2-PDC line was cultured in 6C/Colon 1B media, which includes advanced DMEM/F-12 (Thermo Fisher Scientific, cat. 12634028), 10 mM HEPES (Thermo Fisher Scientific, cat. 15630080), 1X GlutaMAX supplement (Thermo Fisher Scientific, cat. 35050061), 0.1 mg/mL primocin (InvivoGen, cat. ant-pm-2), 10% defined fetal bovine serum, heat inactivated (HyClone Laboratories Inc., cat. SH30070.03HI), 50% L-WRN conditioned media (ATCC, cat. CRL-3276), 1.25 mM N-Acetyl-L-cysteine (Sigma-Aldrich, cat. A9165), 10 mM nicotinamide (Sigma-Aldrich, cat. N0636), 1X B-27 supplement (Thermo Fisher Scientific, cat. 17504044), 1X N-2 supplement (Thermo Fisher Scientific, cat. 17502048), 10 microM Y-27632 dihydrochloride (Tocris Bioscience, cat. 1254), and 50 ng/mL human EGF recombinant protein (Thermo Fisher Scientific, cat. PHG0311). The 485176-168-R4-J1-PDC line was cultured in Panc media, which includes all 6C/Colon 1B media components plus 100 ng/mL human FGF-10 (Thermo Fisher Scientific, cat. 100-26), 500 nM SB-431542 (Selleckchem, cat. S1067), and gastrin (Tocris, cat. 3006).
[…]
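Note: spheroids exposed to the agents for seven days before readout.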
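Throughout, for viability, T/C: percent viability relative to DMSO vehicle control wells = 100%.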

Compound: Cc1[nH]c2ccccc2c1CCNCc1ccc(/C=C/C(=O)NO)cc1 + CN(C)c1ccc(Nc2c3ccc(NC(=O)CCN4CCCC4)cc3nc3cc(NC(=O)CCN4CCCC4)ccc23)cc1
- IC50 (second compound 0.0316 µM): 161 nM
- IC50 (second compound 0.1 µM): 138 nM
- IC50 (second compound 0.316 µM): 171 nM
- IC50 (second compound 1 µM): 188 nM
- IC50 (second compound 3.16 µM): 151 nM
- IC50 (second compound 10 µM): 134 nM
- viability, T/C (second compound 0.0316 µM, first compound 0.000999 µM): 96.8%
- viability, T/C (second compound 0.0316 µM, first compound 0.00316 µM): 81.8%
- viability, T/C (second compound 0.0316 µM, first compound 0.00999 µM): 89.2%
- viability, T/C (second compound 0.0316 µM, first compound 0.0316 µM): 82.9%
- viability, T/C (second compound 0.0316 µM, first compound 0.0999 µM): 74.8%
- viability, T/C (second compound 0.0316 µM, first compound 0.316 µM): 16.3%
- viability, T/C (second compound 0.1 µM, first compound 0.000999 µM): 86%
- viability, T/C (second compound 0.1 µM, first compound 0.00316 µM): 102%
- viability, T/C (second compound 0.1 µM, first compound 0.00999 µM): 86.8%
- viability, T/C (second compound 0.1 µM, first compound 0.0316 µM): 90.3%
- viability, T/C (second compound 0.1 µM, first compound 0.0999 µM): 63.7%
- viability, T/C (second compound 0.1 µM, first compound 0.316 µM): 15%
- viability, T/C (second compound 0.316 µM, first compound 0.000999 µM): 95.3%
- viability, T/C (second compound 0.316 µM, first compound 0.00316 µM): 88.5%
- viability, T/C (second compound 0.316 µM, first compound 0.00999 µM): 87%
- viability, T/C (second compound 0.316 µM, first compound 0.0316 µM): 97.3%
- viability, T/C (second compound 0.316 µM, first compound 0.0999 µM): 77%
- viability, T/C (second compound 0.316 µM, first compound 0.316 µM): 19.3%
- viability, T/C (second compound 1 µM, first compound 0.000999 µM): 101%
- viability, T/C (second compound 1 µM, first compound 0.00316 µM): 110%
- viability, T/C (second compound 1 µM, first compound 0.00999 µM): 73.4%
- viability, T/C (second compound 1 µM, first compound 0.0316 µM): 92.4%
- viability, T/C (second compound 1 µM, first compound 0.0999 µM): 87.8%
- viability, T/C (second compound 1 µM, first compound 0.316 µM): 18.7%
- viability, T/C (second compound 3.16 µM, first compound 0.000999 µM): 111%
- viability, T/C (second compound 3.16 µM, first compound 0.00316 µM): 110%
- viability, T/C (second compound 3.16 µM, first compound 0.00999 µM): 86.6%
- viability, T/C (second compound 3.16 µM, first compound 0.0316 µM): 107%
- viability, T/C (second compound 3.16 µM, first compound 0.0999 µM): 68.9%
- viability, T/C (second compound 3.16 µM, first compound 0.316 µM): 16.2%
- viability, T/C (second compound 10 µM, first compound 0.000999 µM): 103%
- viability, T/C (second compound 10 µM, first compound 0.00316 µM): 121%
- viability, T/C (second compound 10 µM, first compound 0.00999 µM): 98.8%
- viability, T/C (second compound 10 µM, first compound 0.0316 µM): 95.7%
- viability, T/C (second compound 10 µM, first compound 0.0999 µM): 61.7%
- viability, T/C (second compound 10 µM, first compound 0.316 µM): 14.7%
